# From patent US20220395496A1 (Hoffmann-La Roche Inc., priority 2019, published 2022)
# Biological target: T1, human TLR9 (Homo sapiens, UniProt Q9NR96)
# T1 sequence (Q9NR96 26-1032): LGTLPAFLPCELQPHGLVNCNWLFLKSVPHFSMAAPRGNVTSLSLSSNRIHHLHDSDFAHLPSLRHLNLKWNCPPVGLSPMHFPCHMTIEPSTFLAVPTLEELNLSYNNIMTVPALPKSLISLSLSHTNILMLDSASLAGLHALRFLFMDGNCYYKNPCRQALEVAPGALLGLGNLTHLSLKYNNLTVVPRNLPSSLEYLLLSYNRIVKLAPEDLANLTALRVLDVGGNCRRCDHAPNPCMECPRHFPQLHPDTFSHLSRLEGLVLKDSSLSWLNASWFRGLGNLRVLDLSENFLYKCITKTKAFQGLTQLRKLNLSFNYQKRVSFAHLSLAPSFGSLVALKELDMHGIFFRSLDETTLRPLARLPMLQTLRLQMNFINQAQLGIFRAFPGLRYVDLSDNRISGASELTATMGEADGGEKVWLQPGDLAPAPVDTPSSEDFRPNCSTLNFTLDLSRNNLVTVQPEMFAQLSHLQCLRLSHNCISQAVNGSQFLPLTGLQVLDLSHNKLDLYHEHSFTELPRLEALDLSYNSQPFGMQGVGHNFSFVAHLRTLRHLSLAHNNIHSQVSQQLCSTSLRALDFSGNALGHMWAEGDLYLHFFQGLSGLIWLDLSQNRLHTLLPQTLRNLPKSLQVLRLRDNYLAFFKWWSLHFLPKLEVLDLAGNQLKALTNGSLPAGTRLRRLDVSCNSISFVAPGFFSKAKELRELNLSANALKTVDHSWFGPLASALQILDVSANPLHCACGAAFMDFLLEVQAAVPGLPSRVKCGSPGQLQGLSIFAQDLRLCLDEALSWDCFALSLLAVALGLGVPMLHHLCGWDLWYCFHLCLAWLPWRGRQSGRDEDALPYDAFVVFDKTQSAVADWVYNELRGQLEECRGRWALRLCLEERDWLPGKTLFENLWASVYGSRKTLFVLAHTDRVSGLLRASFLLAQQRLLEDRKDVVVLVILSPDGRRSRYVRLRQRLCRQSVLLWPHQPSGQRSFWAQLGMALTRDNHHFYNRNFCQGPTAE
# Assay: HEK293-Blue-hTLR-9 cells assay (SEAP reporter, ODN2006 stimulation)
# Format: cell-based
# Settings: HEK293-Blue-hTLR9 cells, ODN2006, 20 hrs
# Experimental: The following tests were carried out in order to determine the activity of the compounds of this invention in HEK293-Blue-hTLR-7/8/9 cells assay.
# HEK293-Blue-hTLR-9 Cells Assay:
# A stable HEK293-Blue-hTLR-9 cell line was purchased from InvivoGen (Cat. #: hkb-htlr9, San Diego, Calif., USA). These cells were originally designed for studying the stimulation of human TLR9 by monitoring the activation of NF-κB. A SEAP (secreted embryonic alkaline phosphatase) reporter gene was placed under the control of the IFN-β minimal promoter fused to five NF-κB and AP-1-binding sites. The SEAP was induced by activating NF-κB and AP-1 via stimulating HEK-Blue hTLR9 cells with TLR9 ligands. Therefore the reporter expression was declined by TLR9 antagonist under the stimulation of a ligand, such as ODN2006 (Cat. #: tlr1-2006-1, Invivogen, San Diego, Calif., USA), for incubation of 20 hrs. The cell culture supernatant SEAP reporter activity was determined using QUANTI-Blue™ kit (Cat. #: rep-qb1, Invivogen, San Diego, Calif., USA) at a wavelength of 640 nm, a detection medium that turns purple or blue in the presence of alkaline phosphatase.
# HEK293-Blue-hTLR9 cells were incubated at a density of 250,000˜450,000 cells/mL in a volume of 170 μL in a 96-well plate in Dulbecco's Modified Eagle's medium (DMEM) containing 4.5 g/L glucose, 50 U/mL penicillin, […], 2 mM L-glutamine, 10% (v/v) heat-inactivated fetal bovine serum with addition of 20 μL test compound in a serial dilution in the presence of final DMSO at 1% and 10 μL of 20 uM ODN2006 in above DMEM, perform incubation under 37° C. in a CO2 incubator for 20 hrs. Then 20 μL of the supernatant from each well was incubated with 180 μL Quanti-blue substrate solution at 37° C. for 2 hrs and the absorbance was read at 620˜655 nm using a spectrophotometer. The signalling pathway that TLR9 activation leads to downstream NF-κB activation has been widely accepted, and therefore similar reporter assay was modified for evaluating TLR9 antagonist.
row,IC50,Compound
1,94 nM,"C[C@H]1C[C@@H](NCc2ccc(N3CCNCC3)cc2)CN(c2ccc(C#N)n3nccc23)C1 [Example 21, 4-[(3S,5R)-3-methyl-5-[(4-piperazin-1-ylphenyl)methylamino]-1-piperidyl]pyrazolo[1,5-a]pyridine-7-carbonitrile]"
2,73 nM,"C[C@H]1C[C@@H](N2Cc3ccc(N4CCNCC4)cc3C2)CN(c2ccc(C#N)c3ncccc23)C1 [Example 12, 5-[(3S,5R)-3-methyl-5-(5-piperazin-1-ylisoindolin-2-yl)-1-piperidyl]quinoline-8-carbonitrile]"
3,77 nM,"C[C@H]1C[C@@H](NCc2ccc(N3CCNCC3)cc2)CN(c2ccc(C#N)c3nccnc23)C1 [Example 3, 8-[(3S,5R)-3-methyl-5-[(4-piperazin-1-ylphenyl)methylamino]-1-piperidyl]quinoxaline-5-carbonitrile]"
4,77 nM,"C[C@H]1C[C@@H](NCc2cnc(N3CCN(C)CC3)nc2)CN(c2ccc(C#N)c3ncccc23)C1 [Example 16, 5-[(3S,5R)-3-methyl-5-[[2-(4-methylpiperazin-1-yl)pyrimidin-5-yl]methylamino]-1-piperidyl]quinoline-8-carbonitrile]"
5,163 nM,"C[C@H]1C[C@@H](NCc2ccc(N3CCC(N)C3)cc2)CN(c2ccc(C#N)c3ncccc23)C1 (stereo partly drawn) [Example 13, 5-[(3R,5S)-3-[[4-(3-aminopyrrolidin-1-yl)phenyl]methylamino]-5-methyl-1-piperidyl]quinoline-8-carbonitrile]"
6,94 nM,"C[C@H]1C[C@@H](NCc2ccc(N3CCNCC3)cc2F)CN(c2ccc(C#N)c3ncccc23)C1 [Example 4, 5-[(3R,58)-3-[(2-fluoro-4-piperazin-1-yl-phenyl)methylamino]-5-methyl-1-piperidyl]quinoline-8-carbonitrile]"
7,68 nM,"C[C@H]1C[C@@H](NCc2ccc(N3CCNCC3)cn2)CN(c2ccc(C#N)c3ncccc23)C1 [Example 5, 5-[(3S,5R)-3-methyl-5-[(5-piperazin-1-yl-2-pyridyl)methylamino]-1-piperidyl]quinoline-8-carbonitrile]"
8,116 nM,"C[C@H]1C[C@@H](NCc2ccc(N3CCN(C)CC3)cn2)CN(c2ccc(C#N)c3ncsc23)C1 [Example 18, 7-[(3S,5R)-3-methyl-5-[[5-(4-methylpiperazin-1-yl)-2-pyridyl]methylamino]-1-piperidyl]-1,3-benzothiazole-4-carbonitrile]"
9,60 nM,"C[C@H]1C[C@@H](NCc2cnc(N3CCNCC3)nc2)CN(c2ccc(C#N)c3ncccc23)C1 [Example 17, 5-[(3S,5R)-3-methyl-5-[(2-piperazin-1-ylpyrimidin-5-yl)methylamino]-1-piperidyl]quinoline-8-carbonitrile]"
10,68 nM,C[C@H]1C[C@@H](NCc2ccc(N3CCNCC3)nc2)CN(c2ccc(C#N)c3ncccc23)C1 [Example 10]
11,183 nM,"C[C@H]1C[C@@H](NCc2ccc(N3CCNCC3)cc2)CN(c2ccc(Cl)c3ncccc23)C1 [Example 22, (3R,5S)-1-(8-chloro-5-quinolyl)-5-methyl-N-[(4-piperazin-1-ylphenyl)methyl]piperidin-3-amine]"
12,47 nM,"C[C@H]1C[C@@H](NCc2cnc(N3CCNCC3)cn2)CN(c2ccc(C#N)c3ncccc23)C1 [Example 31, 5-[(3S,5R)-3-methyl-5-[(5-piperazin-1-ylpyrazin-2-yl)methylamino]-1-piperidyl]quinoline-8-carbonitrile]"
13,55 nM,"C[C@H]1C[C@@H](NCc2ccc(N3CCNCC3)cc2)CN(c2ccc(C#N)c3ncccc23)C1 [Example 1, 5-[(3S,5R)-3-methyl-5-[(4-piperazin-1-ylphenyl)methylamino]1-piperidyl]quinoline-8-carbonitrile]"
14,95 nM,"C[C@H]1C[C@@H](N(C)Cc2ccc(N3CCNCC3)cc2)CN(c2ccc(C#N)c3ncccc23)C1 [Example 9, 5-[(3S,5R)-3-methyl-5-[methyl-[(4-piperazin-1-ylphenyl)methyl]amino]-1-piperidyl]quinoline-8-carbonitrile]"
15,48 nM,"C[C@H]1C[C@@H](NCc2cnc(N3CCN[C@H](C)C3)nc2)CN(c2ccc(C#N)c3ncccc23)C1 [Example 28, 5-[(3S,5R)-3-methyl-5-[[2-[(3R)-3-methylpiperazin-1-yl]pyrimidin-5-yl]methylamino]-1-piperidyl]quinoline-8-carbonitrile]"
16,69 nM,"C[C@H]1C[C@@H](NCc2ccc(N3CCN(C)CC3)cc2)CN(c2ccc(C#N)c3ncccc23)C1 [Example 7, 5-[(3S,5R)-3-methyl-5-[[4-(4-methylpiperazin-1-yl)phenyl]methylamino]-1-piperidyl]quinoline-8-carbonitrile]"
17,55 nM,"CC(N[C@@H]1C[C@H](C)CN(c2ccc(C#N)c3ncccc23)C1)c1ccc(N2CCNCC2)cc1 (stereo partly drawn) [Example 26, 5-[(3S,5R)-3-methyl-5-[1-(4-piperazin-1-ylphenyl)ethylamino]-1-piperidyl]quinoline-8-carbonitrile]"
18,70 nM,"C[C@H]1C[C@@H](NCc2cccc(N3CCN(C)CC3)c2)CN(c2ccc(C#N)c3ncccc23)C1 [Example 6, 5-[(3S,5R)-3-methyl-5-[[3-(4-methylpiperazin-1-yl)phenyl]methylamino]-1-piperidyl]quinoline-8-carbonitrile]"
19,61 nM,"C[C@H]1C[C@@H](NCc2ncc(N3CCNCC3)cn2)CN(c2ccc(C#N)c3ncccc23)C1 [Example 25, 5-[(3S,5R)-3-methyl-5-[(5-piperazin-1-ylpyrimidin-2-yl)methylamino]-1-piperidyl]quinoline-8-carbonitrile]"
20,82 nM,"C[C@H]1C[C@@H](NCc2ccc3c(c2)CCNC3)CN(c2ccc(C#N)c3ncccc23)C1 [Example 11, 5-[(3S,5R)-3-methyl-5-(1,2,3,4-tetrahydroisoquinolin-6-ylmethylamino)-1-piperidyl]quinoline-8-carbonitrile]"
21,32 nM,"C[C@H]1C[C@@H](NCc2cnc(N3CCN[C@@H](C)C3)nc2)CN(c2ccc(C#N)c3ncccc23)C1 [Example 29, 5-[(3S,5R)-3-methyl-5-[[2-[(3S)-3-methylpiperazin-1-yl]pyrimidin-5-yl]methylamino]-1-piperidyl]quinoline-8-carbonitrile]"
22,75 nM,"C[C@H]1C[C@@H](NCc2ccc(C3CCNCC3)cc2)CN(c2ccc(C#N)c3ncccc23)C1 [Example 2, 5-[(3S,5R)-3-methyl-5-[[4-(4-piperidyl)phenyl]methylamino]-1-piperidyl]quinoline-8-carbonitrile]"
23,70 nM,"C[C@H]1C[C@@H](N2CCc3cc(N4CCNCC4)ccc3C2)CN(c2ccc(C#N)c3ncccc23)C1 (relative stereo) [Example 24, 5-[cis-3-methyl-5-(6-piperazin-1-yl-3,4-dihydro-1H-isoquinolin-2-yl)-1-piperidyl]quinoline-8-carbonitrile]"
24,92 nM,"C[C@H]1C[C@@H](N2Cc3cc(N4CCNCC4)cnc3C2)CN(c2ccc(C#N)c3ncccc23)C1 [Example 23, 5-[(3S,5R)-3-methyl-5-(3-piperazin-1-yl-5,7-dihydropyrrolo[3,4-b]pyridin-6-yl)-1-piperidyl]quinoline-8-carbonitrile]"

row,Compound,IC50
1,"C[C@H]1C[C@@H](N2Cc3ccccc3C2)CN(c2ccc(C#N)c3ncccc23)C1 [Example R2, reference compound]",8660 nM
